# Assay results taken from publication PMC7720599, “Rhenium N-heterocyclic carbene complexes block growth of aggressive cancers by inhibiting FGFR- and SRC-mediated signalling” (Journal of Experimental & Clinical Cancer Research : CR, 2020).
# Tested on: zebrafish embryos
# Assay: Zebrafish embryo teratogenicity
# Format: in vivo
# Conditions: treatment from 2hpf, images at 24hpf
# Protocol: Embryos were observed daily at 24 h intervals and toxicity scores (hatching and mortality) were recorded until 120hpf. For heart rate assessments, embryos were anesthetized with tricaine (ethyl 3-aminobenzoate methanesulfonate) at 48hpf and counted under the stereomicroscope for 1min. To assess JVG045 teratogenicity compared to BGJ398, embryos were treated with the compounds starting from 2hpf and results observed at 24hpf. Compounds were prepared in DMSO and diluted to the final concentration in E2 embryo medium. DMSO was used as negative control.
compound,measurement,value
"CCN1CCN(c2ccc(Nc3cc(N(C)C(=O)Nc4c(Cl)c(OC)cc(OC)c4Cl)ncn3)cc2)CC1 [BGJ398, 3-(2,6-Dichloro-3,5-dimethoxy-phenyl)-1-{6-[4-(4-ethyl-piperazin-1-yl)-phenylamino]-pyrimidin-4-yl}-1-methyl-urea]",concentration at which developmental defects start,0.5 to 1 µM
